In ChEMBL document CHEMBL1201862, “PubChem BioAssay data set” (2004):
Each block holds one compound with its values, some of them ahead of it. Active and inactive are the calls of the source.

Experiments:
[1] = viability of uninfected HEp-2 cells – cell-based, HTS, cytotoxicity control for RSV inhibitor project, dose response (AID 2410); format: functional; details: human respiratory syncytial virus
[2] = biological target: Cytochrome P450 3A4 (Homo sapiens, UniProt P08684);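 further: CYP3A4 tested as one member of a cytochrome P450 panel screen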
Sequence of Cytochrome P450 3A4 (P08684 whole entry): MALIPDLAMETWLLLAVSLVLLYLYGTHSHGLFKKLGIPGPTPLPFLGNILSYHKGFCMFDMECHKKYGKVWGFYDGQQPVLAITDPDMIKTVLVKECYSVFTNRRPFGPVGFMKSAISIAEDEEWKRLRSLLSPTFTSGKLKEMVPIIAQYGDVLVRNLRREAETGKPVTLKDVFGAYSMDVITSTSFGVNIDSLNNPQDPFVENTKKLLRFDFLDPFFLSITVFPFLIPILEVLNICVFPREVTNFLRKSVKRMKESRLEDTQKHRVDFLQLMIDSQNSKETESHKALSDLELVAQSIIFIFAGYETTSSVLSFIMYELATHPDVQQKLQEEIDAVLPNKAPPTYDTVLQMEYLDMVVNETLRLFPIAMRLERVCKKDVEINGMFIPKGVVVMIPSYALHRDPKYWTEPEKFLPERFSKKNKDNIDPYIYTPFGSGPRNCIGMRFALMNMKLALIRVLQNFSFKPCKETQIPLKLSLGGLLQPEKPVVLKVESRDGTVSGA

[3] = biological target: Cytochrome P450 2C9 (Homo sapiens, UniProt P11712)
Sequence of Cytochrome P450 2C9 (P11712 whole entry): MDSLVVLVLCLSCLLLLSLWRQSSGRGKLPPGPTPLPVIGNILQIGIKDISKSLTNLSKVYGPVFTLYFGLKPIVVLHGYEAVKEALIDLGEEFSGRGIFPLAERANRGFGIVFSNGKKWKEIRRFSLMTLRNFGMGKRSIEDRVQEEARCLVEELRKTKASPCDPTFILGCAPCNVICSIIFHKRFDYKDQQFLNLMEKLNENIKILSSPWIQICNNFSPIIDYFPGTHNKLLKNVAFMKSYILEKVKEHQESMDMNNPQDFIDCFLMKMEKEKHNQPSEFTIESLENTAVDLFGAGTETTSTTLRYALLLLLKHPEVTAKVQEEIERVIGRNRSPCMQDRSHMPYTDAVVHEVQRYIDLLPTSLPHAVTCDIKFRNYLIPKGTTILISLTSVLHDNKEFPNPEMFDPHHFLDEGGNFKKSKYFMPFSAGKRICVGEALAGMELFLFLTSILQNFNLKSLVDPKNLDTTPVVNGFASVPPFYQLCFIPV

[4] = Trypanosoma cruzi growth suppression in host cells – NIH3T3 host cells, beta-gal luminescence, confirmation (AID 2044); format: functional, cell-based;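 further: intracellular parasites grown in NIH/3T3 mouse fibroblasts as host cells; luminescent beta-galactosidase reporter signal from transgenic T. cruzi replicating inside host cells; inhibitors lower the luminescence signal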
[5] = NIH3T3 cell viability loss – ATP luminescence, mouse fibroblasts, counter-screen, dose response (AID 2010); format: functional, cell-based;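 further: cells exposed to compound for about 90 hours before reading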
[6] = biological target: Cytochrome P450 2D6 (Homo sapiens, UniProt P10635);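 further: CYP2D6 member of a cytochrome P450 panel assay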
Sequence of Cytochrome P450 2D6 (P10635 whole entry): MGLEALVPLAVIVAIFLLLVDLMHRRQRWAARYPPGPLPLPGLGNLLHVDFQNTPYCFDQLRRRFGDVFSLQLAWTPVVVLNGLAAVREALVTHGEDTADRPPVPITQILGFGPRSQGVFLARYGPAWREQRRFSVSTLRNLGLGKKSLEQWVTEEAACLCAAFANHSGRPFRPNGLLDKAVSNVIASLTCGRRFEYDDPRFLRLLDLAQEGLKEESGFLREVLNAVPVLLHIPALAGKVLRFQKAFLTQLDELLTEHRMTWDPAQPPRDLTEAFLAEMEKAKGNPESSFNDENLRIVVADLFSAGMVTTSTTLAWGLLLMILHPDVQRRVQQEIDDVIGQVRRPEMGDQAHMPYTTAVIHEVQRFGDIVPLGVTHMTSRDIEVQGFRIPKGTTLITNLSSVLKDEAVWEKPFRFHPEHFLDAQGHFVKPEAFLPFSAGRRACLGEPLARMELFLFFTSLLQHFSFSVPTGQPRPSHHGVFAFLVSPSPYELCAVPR

[7] = biological target: T1, Cytochrome P450 1A2 (Homo sapiens, UniProt P05177);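 further: PubChem cytochrome P450 panel assay, CYP1A2 panel member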
T1 sequence (P05177 whole entry): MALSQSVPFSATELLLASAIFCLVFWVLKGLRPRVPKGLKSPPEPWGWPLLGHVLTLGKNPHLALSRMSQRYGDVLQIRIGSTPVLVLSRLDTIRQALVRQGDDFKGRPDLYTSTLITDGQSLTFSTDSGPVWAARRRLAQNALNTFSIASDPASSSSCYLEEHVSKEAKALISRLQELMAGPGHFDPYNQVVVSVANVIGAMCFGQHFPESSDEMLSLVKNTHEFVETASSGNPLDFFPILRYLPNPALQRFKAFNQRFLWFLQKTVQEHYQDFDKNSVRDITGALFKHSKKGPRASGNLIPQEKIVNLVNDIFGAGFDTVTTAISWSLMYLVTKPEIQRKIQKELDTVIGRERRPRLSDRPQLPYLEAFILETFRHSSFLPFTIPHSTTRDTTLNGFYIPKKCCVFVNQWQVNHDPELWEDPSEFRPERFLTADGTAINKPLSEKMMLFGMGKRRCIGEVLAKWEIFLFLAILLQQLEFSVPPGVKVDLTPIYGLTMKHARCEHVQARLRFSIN

[8] = system: Streptococcus; assay: GAS UMAA2166 growth inhibition – luminescence, BacTiterGlo, counter-screen for streptokinase expression inhibitor project, dose response (AID 1915); format: functional, organism-based;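 further: potency for reduction of bacterial viability or growth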
[9] = system: Streptococcus sp. 'group A'; assay: Streptococcus pyogenes SK(-)GAS viability under kanamycin – luminescence, BacTiterGlo, confirmation, counter-screen for streptokinase expression inhibitor project, dose response (AID 1900); format: functional, organism-based

SMILES: O=C(NCc1cccnc1)c1c(O)c2cccc3c2n(c1=O)CCC3
CC50 [1]: 22.8 µM (active)

SMILES: COc1ccc(CCN(C)CC(=O)Nc2c(C)cc(C)cc2C)cc1OC
EC50 [4]: 0.592 µM (active)
EC50 [5]: > 60 µM (not active)

SMILES: O=C1Nc2ccccc2CCC1Sc1nnc(-c2ccc(Cl)cc2)s1 (stereo not drawn)
CC50 [1]: 3.7 µM (active)

SMILES: COc1ccc(C(=O)C2CCCN(Cc3cnc(N4CCCC4)s3)C2)cc1OC (stereo not drawn)
EC50 [4]: 0.26 µM (active)
EC50 [5]: > 30 µM (not active)

SMILES: NC(=O)C1CCN(C(=O)C(=O)c2cn(CC(=O)N3CCCCCC3)c3ccccc23)CC1
EC50 [4]: 1.32 µM (active)
EC50 [5]: > 60 µM (not active)

SMILES: Cc1ccc(CN(Cc2cccnc2)C(S)=Nc2cc(Cl)ccc2C)cc1
EC50 [4]: 1.61 µM (active)
EC50 [5]: > 60 µM (not active)

SMILES: CCCN(CC#CC(O)(c1ccccc1)c1cccnc1)CCC (stereo not drawn)
EC50 [4]: 0.463 µM (active)
EC50 [5]: > 60 µM (not active)

SMILES: CO[C@@H]1/C=C\O[C@@]2(C)Oc3c(C)c(O)c4c(c3C2=O)/C(=N/[C@H]2CC[C@H](O)O[C@@H]2C)C=C(NC(=O)/C(C)=C\C(=O)[C@@H]2C[C@@H]2[C@@H](O)[C@H](C)[C@@H](O)[C@H](C)[C@H](OC(C)=O)[C@@H]1C)C4=O
AC50 [6]: 3.16 µM (inconclusive)
AC50 [3]: 3.98 µM (inconclusive)

SMILES: Cc1ccc(S(=O)(=O)N2CCC(=O)N(C(COCc3ccc(Cl)cc3Cl)Cc3ccccc3)CC2)cc1 (stereo not drawn)
EC50 [4]: 1.58 µM (active)
EC50 [5]: 34.1 µM (active)

SMILES: C[C@@H]1CC[C@H]2C(=O)NC[C@@H](O)CN2[C@@H]1c1ccc(Br)cc1
AC50 [2]: 3.98 µM (inconclusive)
AC50 [6]: 3.16 µM (inconclusive)
AC50 [3]: 5.01 µM (inconclusive)

SMILES: CCOC(=O)c1oc2ccc(CNC3CCCCC3)c(Cl)c2c1C
EC50 [4]: 1.73 µM (active)
EC50 [5]: > 60 µM (not active)

SMILES: Cc1ccc2ccc(S(=O)(=O)NCc3ccco3)cc2c1
CC50 [1]: 29.2 µM (active)

SMILES: Cc1nc(N)sc1-c1csc(Nc2cccc(O)c2)n1
CC50 [1]: 48.4 µM (active)

SMILES: Cc1ccc2occ(/C=N/NC(N)=S)c(=O)c2c1
CC50 [1]: > 50 µM (active)

SMILES: Cc1sc2ccccc2c1CC1=NCCN1 [METIZOLINE]
AC50 [6]: 31.6 µM (inconclusive)

SMILES: C[C@H]1[C@H](C)CC[C@]2(C(=O)O)CC[C@]3(C)C(=CC[C@@H]4[C@@]5(C)CC[C@H](O)C(C)(C)[C@@H]5CC[C@]43C)[C@H]12 [URSOLIC ACID]
CC50 [1]: 28.4 µM (active)
EC50 [8]: 0.88 µM (active)
EC50 [9]: 0.949 µM (active)

The remaining lines, values ahead:

AC50 [2]: 3.98 µM (inconclusive)
SMILES: CO[C@H]1COC(=O)C/C=C\[C@@H](C)COC(=O)[C@@H](OCc2ccccc2)/C=C\[C@@H]1C

AC50 [3]: 2.82 µM (inconclusive)
SMILES: Cc1ccc(NC(=O)CC2CS(=O)(=O)CC2CC(=O)Nc2ccc(C)c(C)c2)cc1C (stereo not drawn)

AC50 [3]: 11.2 µM (inconclusive)
SMILES: Cc1cc(NC(=S)Nc2ccccc2)ccc1Br

AC50 [2]: 3.55 µM (inconclusive)
SMILES: Cc1nc(N2CCOCC2)nc(N2CCN(c3ccccc3)CC2)c1[N+](=O)[O-]

AC50 [2]: 31.6 µM (inconclusive)
AC50 [6]: 25.1 µM (inconclusive)
AC50 [3]: 1 µM (inconclusive)
SMILES: FC(F)(F)c1ccccc1-c1nccc(NCc2ccccc2)n1

AC50 [2]: 7.94 µM (inconclusive)
AC50 [6]: 39.8 µM (inconclusive)
SMILES: CC(=O)N1CCC2(CCCN(c3cccc(-c4ccccc4)c3)C2)CC1

AC50 [6]: 11.2 µM (inconclusive)
AC50 [7]: 12.6 µM (inconclusive)
SMILES: COc1ccccc1NC(=O)COC(=O)c1ccc(S(=O)(=O)NCc2ccco2)cc1

AC50 [7]: 2.82 µM (inconclusive)
SMILES: COc1cc(C(=O)NC(=S)Nc2cccc(-c3cc4ccccc4oc3=O)c2)cc(OC)c1OC

AC50 [6]: 22.4 µM (inconclusive)
SMILES: Cc1ccc(/C=C/C2=Cc3c(sc(NC(=O)CSc4nnc(N)[nH]4)c3C#N)C(C)(C)C2)o1

AC50 [6]: 39.8 µM (inconclusive)
SMILES: c1cncc(-c2ccc3ncnc(NCCN4CCOCC4)c3c2)c1

AC50 [2]: 12.6 µM (inconclusive)
SMILES: COCCn1c(=O)c(-c2ccc(F)cc2)nc2cncnc21

AC50 [6]: 15.8 µM (inconclusive)
SMILES: CCOC(=O)c1cc2sc(C)cc2n1CCCN1C(=O)c2ccccc2C1=O

AC50 [6]: 12.6 µM (inconclusive)
SMILES: O=C1CC(N2CCN(CCc3ccccn3)CC2)C(=O)N1c1ccc(Cl)cc1 (stereo not drawn)

AC50 [7]: 5.01 µM (inconclusive)
SMILES: O=C(O)[C@H]([C@H]1NCCS1)N1C(=O)c2ccccc2C1=O

AC50 [6]: 15.8 µM (inconclusive)
AC50 [7]: 15.8 µM (inconclusive)
SMILES: CCCOc1ccc(N2C(=O)CC(SC(=N)N/N=C(\C)c3cccs3)C2=O)cc1 (stereo not drawn)

AC50 [2]: 20 µM (inconclusive)
AC50 [3]: 25.1 µM (inconclusive)
SMILES: Cc1ccc([N+](=O)[O-])cc1/N=C(/c1cccc([N+](=O)[O-])c1)N1CCOCC1

AC50 [6]: 3.16 µM (inconclusive)
AC50 [3]: 0.631 µM (inconclusive)
SMILES: COc1ccccc1CNc1ncnc2ccc(-c3ccccc3C#N)cc12

AC50 [6]: 12.6 µM (inconclusive)
SMILES: CCCCOC(=O)c1ccc(O)cc1 [BUTYLPARABEN]
